Consider seven compounds from US20140343008A1, “HEPATITIS C TREATMENT” (Gilead Pharmasset LLC, priority 2013, published 2014).

Like-named read-outs stand apart in the source and are kept apart here.

Data set [1] deals with T1, BCRP (Homo sapiens, UniProt Q9UNQ0).
T1 sequence (Q9UNQ0 1-655): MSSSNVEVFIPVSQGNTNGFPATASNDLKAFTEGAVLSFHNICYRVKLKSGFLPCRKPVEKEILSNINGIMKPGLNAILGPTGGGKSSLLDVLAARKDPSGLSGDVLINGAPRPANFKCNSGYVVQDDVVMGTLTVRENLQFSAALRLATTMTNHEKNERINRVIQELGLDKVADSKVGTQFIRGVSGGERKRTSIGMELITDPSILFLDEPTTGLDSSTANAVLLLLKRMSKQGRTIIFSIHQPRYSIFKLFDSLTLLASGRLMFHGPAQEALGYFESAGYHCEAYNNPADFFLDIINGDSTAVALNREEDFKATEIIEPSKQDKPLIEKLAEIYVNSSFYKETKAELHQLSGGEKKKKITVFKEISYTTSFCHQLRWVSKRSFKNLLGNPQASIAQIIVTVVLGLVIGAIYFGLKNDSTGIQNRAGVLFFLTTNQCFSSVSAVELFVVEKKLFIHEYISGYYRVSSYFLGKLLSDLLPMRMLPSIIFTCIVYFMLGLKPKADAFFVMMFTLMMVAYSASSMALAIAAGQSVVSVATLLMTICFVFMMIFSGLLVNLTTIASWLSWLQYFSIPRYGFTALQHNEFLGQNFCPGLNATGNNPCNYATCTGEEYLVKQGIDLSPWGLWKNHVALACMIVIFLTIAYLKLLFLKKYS
The data set can be described thus: In vitro drug transporter inhibition, BCRP. In kind it is in vitro ADME. An excerpt: (§1) Based on the results of Example 1, it was contemplated that Compound I increased the exposure of sofosbuvir by inhibiting the activities of one or more drug transporters. This example carried out in vitro experiments to test whether Compound I inhibited any of the potentially relevant drug transporters, […], BCRP and P-gp.

For data set [2], the target named is P-gp (Homo sapiens, UniProt P08183). In words: In vitro drug transporter inhibition, P-gp. In kind it is in vitro ADME.
Sequence of P-gp (P08183 whole entry): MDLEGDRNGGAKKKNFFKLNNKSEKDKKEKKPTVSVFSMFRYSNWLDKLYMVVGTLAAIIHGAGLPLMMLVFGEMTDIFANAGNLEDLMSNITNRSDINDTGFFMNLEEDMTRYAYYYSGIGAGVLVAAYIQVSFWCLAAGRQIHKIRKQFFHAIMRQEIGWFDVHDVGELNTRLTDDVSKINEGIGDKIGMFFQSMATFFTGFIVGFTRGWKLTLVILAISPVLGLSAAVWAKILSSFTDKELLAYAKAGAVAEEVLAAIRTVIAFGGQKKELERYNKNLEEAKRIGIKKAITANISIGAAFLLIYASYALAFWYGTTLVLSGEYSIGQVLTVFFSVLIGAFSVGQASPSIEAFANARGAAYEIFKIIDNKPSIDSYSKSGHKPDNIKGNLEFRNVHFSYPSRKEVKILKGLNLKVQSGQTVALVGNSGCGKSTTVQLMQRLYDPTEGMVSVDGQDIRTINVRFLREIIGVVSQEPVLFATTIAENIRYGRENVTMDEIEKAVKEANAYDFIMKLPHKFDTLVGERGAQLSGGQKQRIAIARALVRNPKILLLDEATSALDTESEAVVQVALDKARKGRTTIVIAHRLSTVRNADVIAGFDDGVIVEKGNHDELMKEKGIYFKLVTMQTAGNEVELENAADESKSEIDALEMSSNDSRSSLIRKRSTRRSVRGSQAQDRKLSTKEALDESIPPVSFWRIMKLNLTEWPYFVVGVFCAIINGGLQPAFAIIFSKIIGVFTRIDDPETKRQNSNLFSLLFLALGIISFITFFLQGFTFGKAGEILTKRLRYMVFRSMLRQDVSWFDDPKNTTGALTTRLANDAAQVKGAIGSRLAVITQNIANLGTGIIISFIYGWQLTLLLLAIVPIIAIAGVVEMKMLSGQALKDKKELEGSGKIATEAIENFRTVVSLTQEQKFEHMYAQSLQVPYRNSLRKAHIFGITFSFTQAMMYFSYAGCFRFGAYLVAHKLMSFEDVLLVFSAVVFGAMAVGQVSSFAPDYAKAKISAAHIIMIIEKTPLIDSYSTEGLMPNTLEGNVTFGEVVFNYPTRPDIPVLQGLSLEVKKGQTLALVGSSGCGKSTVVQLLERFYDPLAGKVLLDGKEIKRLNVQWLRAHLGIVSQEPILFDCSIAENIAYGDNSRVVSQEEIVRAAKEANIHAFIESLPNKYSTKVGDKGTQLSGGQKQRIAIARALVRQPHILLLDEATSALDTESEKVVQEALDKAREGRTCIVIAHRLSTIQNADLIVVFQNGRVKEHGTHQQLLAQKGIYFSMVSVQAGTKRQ
Excerpt: as §1

A short description of data set [3]: Phase I pharmacokinetic study of the combination of Compound I and sofosbuvir in healthy volunteers. Conditions: for Ctau, Mean / Cmax / AUC / AUC(0-inf) / AUC(0-t): n = 18; for Cmax / AUC / AUC(0-inf) / AUC(0-t): both sexes, human; for AUC: read-out: AUCtau, Mean; for AUC(0-inf): healthy volunteers, read-out: AUCinf, Mean; for AUC(0-t): read-out: AUClast, Mean. In kind it is in vivo, human. The source says: This example studied the pharmacokinetics (PK) of the combination of Compound I and sofosbuvir (SOF), along with two metabolites of SOF, Metabolite I and II, in healthy volunteers, as part of a Phase I clinical study for Compound I.
This was a randomized, open label, single-center, multiple-dose study that enrolled Healthy males and non-pregnant, non-lactating females from 18 to 45 years old. The duration of the study was up to 38 days, and duration of the treatment was 28 days.
Additional specific exclusion criteria included, (1) use of over the counter (OTC) or prescribed medications that affect gastric pH (i.e., antacids, H2 receptor antagonists (H2RAs), and/or proton-pump inhibitors (PPIs)) 28 days prior to baseline and (2) history of severe peptic ulcer disease, GERD, or other stomach acid diseases requiring prolonged (>6 months) medication or surgical therapy to modify gastric pH. […]
Plasma concentrations and pharmacokinetic parameters for the compounds were listed and summarized using descriptive statistics by treatment. In addition, an analysis of variance (ANOVA) using a mixed-effects model with treatment, period, sequence as fixed effects and subject within sequence as a random effect were fitted to the natural logarithmic transformation of PK parameters (AUCinf, AUClast, and Cmax).
The 90% confidence intervals were constructed for the ratio of geometric least-squares means of primary PK parameters for each of the test treatments (as shown in Table 1).

Data set [4] deals with human colon carcinoma cell line (caco-2). In words: Bidirectional permeability of sofosbuvir in caco-2 monolayers. Conditions: for Papp of sofosbuvir, Forward, Average / Papp of sofosbuvir, Forward, Repat 2 / Papp of sofosbuvir, Forward, Repeat 1 / Papp of sofosbuvir, Reverse, Average / Papp of sofosbuvir, Reverse, Repat 2 / Papp of sofosbuvir, Reverse, Repeat 1 / effect of coincubation on permeability/efflux of sofosbuvir, fold increase: human, Caco-2, 120 min, pH 7.4. The method, then: (§2) Caco-2 human intestinal epithelial cell monolayers cultured for twenty-one to twenty-eight days were plated on 12 well Transwell® dual chamber plates.
(§3) Assays were run in duplicate (n=2) in one to two separate experiments. Assay buffer at pH 7.4 was placed in both chambers. Hanks buffer with 1% BSA was used in receiver compartment.
(§4) Apical side was dosed for apical-to-basolateral (A to B) assessment. Basolateral side was dosed for basolateral-to-apical (B to A) assessment. Donor side was sampled at time points of 0 and 120 minutes.
(§5) Receiver side was sampled at time points: 60 and 120 minutes.
(§6) The apparent permeability, Papp, and % recovery were calculated as follows: […]
(§7) Where, dR/dt is the slope of the cumulative concentration in the receiver compartment versus time in μM/s based on receiver concentrations measured at 60 and 120 minutes. Vr and Vd are the volumes in the receiver and donor compartment in cm^3, respectively. A is the area of the cell monolayer (1.12 cm^2). D0 and D120 are the measured donor concentrations at the beginning and end of the experiment, respectively. R120 is the receiver concentration at the end of the experiment (120 minutes).
A general note: Caco-2 monolayers are a common model of the intestinal barrier.

Assay in data set [5]: as above
As to conditions: human, Caco-2, pH 7.4. As to the method:
as §2, §3, §4, §5, §6, §7

Setting [6] is: SOF + Comp I versus Comp I alone.
Setting [7] is: plasma, oral, 100 mg, Comp I alone.
Setting [8] is: in vivo, plasma analyte after SOF + Comp I.
Where [9] appears, read: in vivo, plasma analyte after SOF alone.
Setting [10] is: co-administration with Compound I versus SOF alone.

In general, Cmax refers to the maximum level reached in the sampled fluid or tissue. As usually defined, the Papp A→B is how fast a substance crosses the layer from the apical side. The term efflux ratio denotes the permeability from basolateral to apical divided by that in the opposite direction, in the common usage.

In the case of `COC[C@H]1C[C@@H](c2ncc(-c3ccc4c(c3)COc3cc5c(ccc6nc([C@@H]7CC[C@H](C)N7C(=O)[C@@H](NC(=O)OC)C(C)C)[nH]c65)cc3-4)[nH]2)N(C(=O)[C@H](NC(=O)OC)c2ccccc2)C1` [Compound I, methyl {(2S)-1-[(2S,5S)-2-(9-{2-[(2S,4S)-1-{(2R)-2-[(methoxycarbonyl)amino]-2-phenylacetyl}-4-(methoxymethyl)pyrrolidin-2-yl]-1H-imidazol-5-yl}-1,11-dihydroisochromeno[4′,3′:6,7]naphtho[1,2-d]imidazol-2-yl)-5-methylpyrrolidin-1-yl]-3-methyl-1-oxobutan-2-yl}carbamate], in data set [1], the “inhibition of BCRP” value is given as “not on other tested transporters”. Besides, the “inhibition of P-gp” value in data set [2] is “marked inhibition”. The “Ctau, Mean” value in data set [3] (Comp I alone) is listed as 113 ng/mL. Further, in data set [3] (setting [6]), the “AUCtau, % GMR” value was 112%; the “Cmax, % GMR” value came to 106%; the “Ctau, % GMR” value is on record as 118%. In data set [3] (SOF + Comp I), the “Ctau, Mean” value is 135 ng/mL. In data set [3] (setting [7]), the highest concentration (Cmax) came out at 963 ng/mL and the AUC came to 7690 ng·h/mL. In addition, the Cmax in data set [3] (plasma, oral, Compound I analyte, SOF + Comp I) was determined as 1020 ng/mL. In data set [3] (plasma, oral, SOF + Comp I), the AUC came to 8600 ng·h/mL. Moreover, in data set [4], the “Papp of sofosbuvir, Forward, Average” value was 0.66 10^−6 cm/s; the “Papp of sofosbuvir, Forward, Repat 2” value is listed as 0.6 10^−6 cm/s; the “Papp of sofosbuvir, Forward, Repeat 1” value was 0.73 10^−6 cm/s; the “Papp of sofosbuvir, Reverse, Average” value was 7.39 10^−6 cm/s. Moreover, in data set [4], the “Papp of sofosbuvir, Reverse, Repat 2” value was 7.56 10^−6 cm/s; the “Papp of sofosbuvir, Reverse, Repeat 1” value is on record as 7.22 10^−6 cm/s; the “effect of coincubation on permeability/efflux of sofosbuvir, fold increase” value is around 4 fold.

In the case of `CC1=CC[C@H](C(=O)N(c2cc(C#CC(C)(C)C)sc2C(=O)O)[C@H]2CC[C@](O)(CO[C@H]3CCOC3)CC2)CC1` [Compound III, 5-(3,3-dimethylbutyn-1-yl)-3-[(cis-4-hydroxy-4-{[(3S)-tetrahydrofuran-3-yloxy]methyl}cyclohexyl) {[(1R)-4-methylcyclohex-3-en-1-yl]carbonyl}amino]thiophene-2-carboxylic acid], in data set [4], the “Papp of sofosbuvir, Forward, Average” value is listed as 0.3 10^−6 cm/s; the “Papp of sofosbuvir, Forward, Repat 2” value is recorded as 0.28 10^−6 cm/s; the “Papp of sofosbuvir, Forward, Repeat 1” value was 0.31 10^−6 cm/s; the “Papp of sofosbuvir, Reverse, Average” value is recorded as 6.93 10^−6 cm/s. Besides, in data set [4], the “Papp of sofosbuvir, Reverse, Repat 2” value was 6.82 10^−6 cm/s; the “Papp of sofosbuvir, Reverse, Repeat 1” value was 7.05 10^−6 cm/s; the “effect of coincubation on permeability/efflux of sofosbuvir, fold increase” value was around 2 fold.

For `Fc1ccccc1-c1nc2ccn(Cc3ccc(-c4ccc(C(F)(F)F)cc4C(F)(F)F)nn3)cc-2n1` [Compound V, 5-((6-(2,4-bis(trifluoromethyl)phenyl)pyridazin-3-yl)methyl)-2-(2-fluorophenyl)-5H-imidazo[4,5-c]pyridine], in data set [4], the “Papp of sofosbuvir, Forward, Average” value was 11.1 10^−6 cm/s; the “Papp of sofosbuvir, Forward, Repat 2” value was 0.92 10^−6 cm/s; the “Papp of sofosbuvir, Forward, Repeat 1” value is given as 0.46 10^−6 cm/s; the “Papp of sofosbuvir, Reverse, Average” value is 1.09 10^−6 cm/s. In data set [4], the “Papp of sofosbuvir, Reverse, Repat 2” value is 11.7 10^−6 cm/s; the “Papp of sofosbuvir, Reverse, Repeat 1” value is on record as 10.5 10^−6 cm/s; the “effect of coincubation on permeability/efflux of sofosbuvir, fold increase” value is on record as around 2 fold.

For the compound `CC(C)NCC(O)COc1cccc2ccccc12` (stereo not shown) [Propranolol, reference compound], in data set [4] (Caco-2), the “permeability through caco-2 cells (in words)” value is recorded as “high permeability”.

With `CC(C)OC(=O)[C@H](C)N[P@](=O)(OC[C@H]1O[C@@H](n2ccc(=O)[nH]c2=O)[C@](C)(F)[C@@H]1O)Oc1ccccc1` [Sofosbuvir, (S)-isopropyl 2-(((S)-(((2R,3R,4R,5R)-5-(2,4-dioxo-3,4-dihydropyrimidin-1(2H)-yl)-4-fluoro-3-hydroxy-4-methyltetrahydrofuran-2-yl)methoxy)(phenoxy)phosphoryl)amino)propanoate], in data set [3] (SOF + Comp I versus SOF alone), the “AUCinf, % GMR” value stood at 238%; the “AUClast, % GMR” value worked out at 238%; the “Cmax, % GMR” value is 181%. Moreover, the AUC(0-inf) in data set [3] (in vivo, plasma analyte after SOF + Comp I (100 mg)) came out at 2860 ng·h/mL. In data set [3] (setting [8]), the Cmax amounted to 1670 ng/mL and the AUC(0-t) came out at 2850 ng·h/mL. Moreover, in data set [3] (setting [9]), the AUC(0-inf) is 1200 ng·h/mL, the peak concentration (Cmax) stood at 964 ng/mL and the AUC(0-t) turned out to be 1200 ng·h/mL. In addition, in data set [3] (setting [10]), the “AUC increase by Compound I” value is around 2.4 fold and the “Cmax increase by Compound I” value is around 1.8 fold. Also, the “permeability through caco-2 cells (in words)” value in data set [4] (sofosbuvir alone at 10 μM, control compounds for acceptance criteria) was “low permeability”. For the same compound, in data set [5], the Papp A→B at 120 min, 10 μM stood at 0.25 ×10⁻⁶ cm/s and the efflux ratio at 120 min, 10 μM is 43.6.

As to `C[C@H]1O[C@@H](O[C@H]2[C@@H](O)C[C@H](O[C@H]3[C@@H](O)C[C@H](O[C@H]4CC[C@@]5(C)[C@H](CC[C@@H]6[C@@H]5C[C@@H](O)[C@]5(C)[C@@H](C7=CC(=O)OC7)CC[C@]65O)C4)O[C@@H]3C)O[C@@H]2C)C[C@H](O)[C@@H]1O` [digoxin, reference compound], the “transport of control transport substrate” value in data set [4] (control) is on record as “Transport was observed”.

Take lucifer yellow [reference compound]: in data set [4] (Caco-2), the “permeability through caco-2 cells (in words)” value is listed as “indicated appropriate membrane integrity”.
